In US5559232A, “Carboxamides” (Hoffmann-La Roche Inc., priority 1993, dated 1996):

Key:
trypsin = test: inhibition of the amidolytic activity of trypsin (chromogenic substrate S-2251); assay type: biochemical; details: substrate S-2251, 200 and 750 μM, otherwise analogous to thrombin
human thrombin = human thrombin (Homo sapiens, UniProt P00734); test: inhibition of the amidolytic activity of thrombin (chromogenic substrate S-2238); assay type: biochemical; details: for Ki: human thrombin 0.5 nM, substrate S-2238, pH 7.8, room temperature; for q (ratio of the inhibition of trypsin to the inhibition of thrombin): specificity: Ki trypsin / Ki thrombin
Procedure: A differential inhibition of thrombin and other serine proteases by the above compounds is desirable in order to obtain compounds having as high a specificity as possible and at the same time to avoid possible side-effects.
Specific chromogenic peptide substrates can be used to determine the inhibition of the catalytic activity of the above proteases. The inhibition of the amidolytic activity of thrombin and trypsin by the above guanidines was determined as described hereinafter.
The measurements were carried out on microtitre plates at room temperature. For this, in each well of the plate 150 μl of buffer (50 mM Tris, 100 mM NaCl, 0.1% polyethylene glycol; pH 7.8) were mixed with 50 μl of the inhibitor dissolved in DMSO and diluted in the buffer, and 25 μl of human thrombin (0.5 nM final conc.) were added. After incubation for 10 minutes the reaction was started by the addition of chromogenic substrate S-2238 (H-D-Phe-Pip-Arg-paranitroaniline from Kabivitrum; 10 or 50 μm final conc.) and the hydrolysis of the substrate was followed spectrophotometrically on a kinetic microtiter plate reader for 5 minutes. After graphical presentation of the inhibition curves the Ki values were determined according to the method described in Blochem. J. 55, 1955, 170-171.

SMILES: CC(=O)N[C@@H](Cc1c[nH]c2ccccc12)C(=O)N[C@@H](CC(=O)NC[C@@H]1CCCN(C(=N)N)C1)C(=O)N(CCNC(=O)c1cnccn1)C1CC1 [Example 21c, (S)-2-[(S)-2-acetylamino-3-indol-3-yl-propionylamino]-N4-[(S)-1-(amino-imino-methyl)-piperidin-3-ylmethyl]-N1-cyclopropyl-N1-(2-pyrazin-2-ylcarbonylamino-ethyl)-succinamide]
- Ki (trypsin): 15 µM
- Ki (human thrombin): 0.0061 µM
- q (ratio of the inhibition of trypsin to the inhibition of thrombin) (human thrombin): 2459

SMILES: CCCCN(CCC(=O)OCC)C(=O)[C@H](CC(=O)NC[C@@H]1CCCN(C(=N)N)C1)NC(=O)NCc1ccco1 [Example 10, Ethyl 3-[[(S)-3-[(S)-1-(amino-imino-methyl)-piperidin-3-ylmethylcarbamoyl]-2-(3-furan-2-ylmethyl-ureido)-propionyl]-butylamino]-propionate]
- Ki (trypsin): 51 µM
- Ki (human thrombin): 0.25 µM
- q (ratio of the inhibition of trypsin to the inhibition of thrombin) (human thrombin): 204

SMILES: CCCCN(CCC(=O)OCC)C(=O)[C@H](CC(=O)NC[C@@H]1CCCN(C(=N)N)C1)NC(=O)OCc1ccccc1 [Example 2c, ethyl 3-[[(S)-3-[(S)-1-(amino-imino-methyl)-piperidin-3-ylmethylcarbamoyl]-2-benzyloxycarbonylamino-propionyl]-butylamino]-propionate]
- Ki (trypsin): 30 µM
- Ki (human thrombin): 0.077 µM
- q (ratio of the inhibition of trypsin to the inhibition of thrombin) (human thrombin): 390

SMILES: CCCCC(=O)N[C@@H](CC(=O)NC[C@@H]1CCCN(C(=N)N)C1)C(=O)N(CC(=O)O)C1CC1 [Example 14a, [[(S)-3-[(S)-1-(Amino-imino-methyl)-piperidin-3-ylmethylcarbamoyl]-2-pentanoylamino-propionyl]-cyclopropyl-amino]acetic acid]
- Ki (trypsin): 64 µM
- Ki (human thrombin): 0.019 µM
- q (ratio of the inhibition of trypsin to the inhibition of thrombin) (human thrombin): 3368

SMILES: CCOC(=O)CCN(C(=O)[C@H](CC(=O)NC[C@@H]1CCCN(C(=N)N)C1)NC(=O)OCc1ccccc1)C1CC1 [Example 2a, Ethyl 3-[[(S)-3-[(S)-1-(amino-imino-methyl)-piperidin-3-ylmethylcarbamoyl]-2-benzyloxycarbonylamino-propionyl]-cyclopropylamino]-propionate]
- Ki (trypsin): 29 µM
- Ki (human thrombin): 0.017 µM
- q (ratio of the inhibition of trypsin to the inhibition of thrombin) (human thrombin): 1706

SMILES: CCCCCC(=O)N[C@@H](CC(=O)NC[C@@H]1CCCN(C(=N)N)C1)C(=O)N(CC(=O)OCC)C1CC1 [Example 13b, ethyl [[(S)-3-[(S)-1-(amino-imino-methyl)-piperidin-3-ylmethylcarbamoyl]-2-hexanoylamino-propionyl]-cyclopropyl-amino]acetate]
- Ki (trypsin): 75 µM
- Ki (human thrombin): 0.41 µM
- q (ratio of the inhibition of trypsin to the inhibition of thrombin) (human thrombin): 183

SMILES: CCOC(=O)CN(C(=O)[C@H](CC(=O)NC[C@@H]1CCCN(C(=N)N)C1)NC(=O)OCc1ccccc1)C1CC1 [Example 1, ethyl [[(S)-3-[(S)-1-(amino-imino-methyl)-piperidin-3-ylmethylcarbamoyl]-2-benzyloxycarbonylamino-propionyl]-cyclopropyl-amino]-acetate]
- Ki (trypsin): 70 µM
- Ki (human thrombin): 1.2 µM
- q (ratio of the inhibition of trypsin to the inhibition of thrombin) (human thrombin): 58

SMILES: CCCCN(CCC(=O)OCC)C(=O)[C@H](CC(=O)NCC1CN(C(=N)N)CCO1)NC(=O)OCc1ccccc1 (stereo partly drawn) [Example 5d, ethyl 3-[[(S)-3-[4-(amino-imino-methyl)-morpholin-2-ylmethylcarbamoyl]-2-benzyloxycarbonylaminopropionyl]-butyl-amino]-propionate]
- Ki (trypsin): 12 µM
- Ki (human thrombin): 0.13 µM
- q (ratio of the inhibition of trypsin to the inhibition of thrombin) (human thrombin): 92

SMILES: N=C(N)N1CCC[C@@H](CNC(=O)C[C@H](NS(=O)(=O)N2CCOCC2)C(=O)N(CCNC(=O)OCc2ccccc2)C2CC2)C1 [Example 23, benzyl 2-[[(S)-3-[(S)-1-(amino-imino-methyl)-piperidin-3-ylmethylcarbamoyl]-2-morpholin-4-ylsulphonylamino-propionyl]cyclopropyl-amino]-ethylcarbamate]
- Ki (trypsin): 13 µM
- Ki (human thrombin): 0.0046 µM
- q (ratio of the inhibition of trypsin to the inhibition of thrombin) (human thrombin): 2826
